The supplement of paper PMC10307832

Columns and labels:
Test in all cases: relative viability (nuclei count vs DMSO), 5 days (fraction); higher = more cells survive
[1] = compound: COc1cc2nccc(Oc3ccc(NC(=O)C4(C(=O)Nc5ccc(F)cc5)CC4)cc3)c2cc1OC [Cabozantinib] + N=C(N)NC(=N)NCCc1ccccc1 [Phenformin] (partner 250 µM)
Outline: (§1)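 Nuclei were stained with Hoechst during a one-step fixation (final 0.05% Triton X-100, 1% formaldehyde, 1 ug/ml Hoechst) carried out 5 days after dosing, then counted on 4× images. The cells, lung cancer lines in 1536-well plates, had been dosed by pin tool the day after seeding with one drug alone or a fixed anchor-drug dose plus five library-drug doses (not always all listed) in √10 steps. Relative viability is the nuclei count in treated wells divided by that in vehicle wells, and each value is the median of duplicate plates.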

Zosuquidar + Crizotinib = compound: O[C@@H](COc1cccc2ncccc12)CN1CCN([C@@H]2c3ccccc3[C@@H]3[C@H](c4ccccc42)C3(F)F)CC1 [Zosuquidar] + C[C@@H](Oc1cc(-c2cnn(C3CCNCC3)c2)cnc1N)c1c(Cl)ccc(F)c1Cl [Crizotinib] (partner 1 µM)
Outline: as §1

Kobe2602 + Pictilisib = compound: C1=CC(=CC=C1NC(=S)NNC2=C(C=C(C=C2[N+](=O)[O-])C(F)(F)F)[N+](=O)[O-])F [Kobe2602] + CS(=O)(=O)N1CCN(Cc2cc3nc(-c4cccc5[nH]ncc45)nc(N4CCOCC4)c3s2)CC1 [Pictilisib] (partner 1 µM)
Outline: as §1

Cabozantinib + Olaparib = compound: COc1cc2nccc(Oc3ccc(NC(=O)C4(C(=O)Nc5ccc(F)cc5)CC4)cc3)c2cc1OC [Cabozantinib] + O=C(c1cc(Cc2n[nH]c(=O)c3ccccc23)ccc1F)N1CCN(C(=O)C2CC2)CC1 [Olaparib] (partner 8 µM)
Outline: as §1

Cell Line	relative viability ([1]; first compound 0.02 µM)	relative viability ([1]; first compound 0.06325 µM)	relative viability ([1]; first compound 0.2 µM)	relative viability ([1]; first compound 0.6325 µM)	relative viability ([1]; first compound 2 µM)	relative viability (Zosuquidar + Crizotinib; first compound 0.01 µM)	relative viability (Zosuquidar + Crizotinib; first compound 0.03162 µM)	relative viability (Zosuquidar + Crizotinib; first compound 0.1 µM)	relative viability (Zosuquidar + Crizotinib; first compound 0.3162 µM)	relative viability (Zosuquidar + Crizotinib; first compound 1 µM)	relative viability (Kobe2602 + Pictilisib; first compound 0.2 µM)	relative viability (Kobe2602 + Pictilisib; first compound 0.6325 µM)	relative viability (Kobe2602 + Pictilisib; first compound 2 µM)	relative viability (Kobe2602 + Pictilisib; first compound 6.325 µM)	relative viability (Kobe2602 + Pictilisib; first compound 20 µM)	relative viability (Cabozantinib + Olaparib; first compound 0.02 µM)	relative viability (Cabozantinib + Olaparib; first compound 0.06325 µM)	relative viability (Cabozantinib + Olaparib; first compound 0.2 µM)	relative viability (Cabozantinib + Olaparib; first compound 0.6325 µM)	relative viability (Cabozantinib + Olaparib; first compound 2 µM)
201T	0.383	0.451	0.472	0.438	0.439	0.986	0.891	0.996	0.983	1.04	0.69	0.718	0.672	0.686	0.697	0.909	0.893	0.832	0.842	0.832
A549	0.407	0.173	0.215	0.156	0.147	0.805	0.738	0.844	0.722	0.765	–	0.476	0.487	0.524	0.514	0.291	0.628	0.34	0.212	0.309
A-427	0.374	0.321	0.427	0.359	0.232	0.851	0.911	0.784	0.957	0.858	0.742	0.925	0.741	0.774	0.98	0.715	0.709	0.714	0.761	0.704
ABC-1	0.244	0.276	0.235	0.28	0.218	1.19	1.17	1.41	1.31	1.08	0.821	1.03	0.768	0.923	0.868	–	0.786	0.939	0.598	0.816
BEN	0.251	0.259	0.284	0.268	0.274	1.01	0.923	0.827	0.821	0.77	0.607	0.581	0.733	0.523	0.645	1.16	1.18	1.23	1.01	0.764
CAL-12T	0.666	0.597	0.554	0.591	0.529	0.51	0.676	0.719	0.747	0.497	0.59	0.556	0.394	0.387	0.548	0.728	0.859	0.73	0.716	0.743
COR-L23	0.433	0.438	0.413	0.443	0.408	0.661	0.699	0.787	0.647	0.716	0.766	0.695	0.811	0.837	0.832	0.366	0.399	0.39	0.37	0.351
COR-L 105	0.387	0.477	–	0.581	0.481	0.953	0.727	0.788	0.838	0.73	0.434	0.433	0.377	0.455	0.387	0.75	0.688	0.742	0.663	0.805
Calu-6	–	–	–	–	–	0.872	0.764	0.879	0.844	0.791	0.935	0.931	0.856	0.885	0.882	0.595	0.662	0.613	0.539	0.517
ChaGo-K-1	0.424	0.519	0.469	0.513	0.501	1.08	1.2	1.32	1.1	1.13	0.761	1.05	0.625	0.725	0.732	0.446	0.458	0.454	0.411	0.442
EBC-1	–	–	–	–	–	0.193	0.214	0.201	0.201	0.205	0.365	0.556	0.402	0.378	0.437	0.748	0.452	0.16	0.136	0.123
EKVX	0.239	0.253	0.223	0.222	0.23	0.951	1.01	0.883	0.995	0.705	0.461	0.422	0.386	0.412	0.426	1.04	1.01	0.792	0.969	0.805
EMC-BAC-2	0.475	0.589	0.582	0.516	0.476	0.78	0.724	0.767	0.843	0.765	0.503	0.6	0.548	0.569	0.558	0.496	0.499	0.531	0.472	0.485
EPLC-272H	0.269	0.331	0.24	0.357	0.291	0.899	0.901	0.97	0.813	0.751	0.321	0.458	0.294	0.345	0.374	0.906	0.787	0.648	0.884	0.597
H3255	0.331	0.393	–	0.346	0.37	0.885	0.832	0.669	0.945	0.857	0.533	0.451	0.509	0.486	0.509	0.583	0.613	–	0.599	0.611
HARA	0.417	0.508	0.443	0.408	0.411	0.924	1.03	1.14	1.09	1.07	0.445	0.415	0.375	0.345	0.495	0.794	1.07	–	0.978	0.635
